Data on ten compounds can be found in patent publication US9266878B2, “Phosphatidylinositol 3-kinase inhibitors” (Gilead Calistoga LLC, priority 2012, dated 2016).

The structures appear in SMILES notation.

By IC50 is commonly meant the concentration that gives 50% inhibition. A lower IC50 goes with inhibition by little substance.

Holding throughout (assay): Enzymatic activity of PI3K isoforms, TR-FRET assay (PIP3 formation)
Assay type in all cases: biochemical
On the technique in general: Time-resolved FRET reads energy transfer from a long-lived donor to a nearby acceptor.

For test [1], the target named is PI3Kγ (Homo sapiens (Human), UniProt P48736). As to the method:
(§1) Enzymatic activity of the class I PI3K isoforms was measured using a time-resolved fluorescence resonance energy transfer (TR-FRET) assay that monitors formation of the product 3,4,5-inositol triphosphate molecule (PIP3), as it competes with fluorescently labeled PIP3 for binding to the GRP-1 pleckstrin homology domain protein. An increase in […] product results in a decrease in TR-FRET signal as the labeled fluorophore is displaced from the GRP-1 protein binding site.
Class I PI3K isoforms were expressed and purified as heterodimeric recombinant proteins. All assay reagents and buffers for the TR-FRET assay were purchased from Millipore.
IC50 are reported in units of nM.

Test [2] has as its target PI3Kα (Homo sapiens (Human), UniProt P42336). The following applies: bound given in uM. How it is done:
as §1
(§2) Class I PI3K isoforms were expressed and purified as heterodimeric recombinant proteins. All assay reagents and buffers for the TR-FRET assay were purchased from Millipore. […] After an assay reaction time of 30 minutes at 25° C., reactions were terminated with a final concentration of 10 mM EDTA, 10 nM labeled-PIP3, and 35 nM Europium labeled GRP-1 detector protein before reading TR-FRET on an Envision plate reader (Ex: 340 nm; Em: 615/665 nm; 100 μs delay and 500 μs read window).
(§3) IC50 are reported in units of nM. These assays generally produced results within 3-fold of the reported mean.

Test [3] has as its target PI3Kδ (Homo sapiens (Human), UniProt O00329). The following applies: bound given in nM. How it is done:
as §1, §2, §3

Chain of PI3Kγ (P48736 whole entry, the tested form may be a part, canonical isoform): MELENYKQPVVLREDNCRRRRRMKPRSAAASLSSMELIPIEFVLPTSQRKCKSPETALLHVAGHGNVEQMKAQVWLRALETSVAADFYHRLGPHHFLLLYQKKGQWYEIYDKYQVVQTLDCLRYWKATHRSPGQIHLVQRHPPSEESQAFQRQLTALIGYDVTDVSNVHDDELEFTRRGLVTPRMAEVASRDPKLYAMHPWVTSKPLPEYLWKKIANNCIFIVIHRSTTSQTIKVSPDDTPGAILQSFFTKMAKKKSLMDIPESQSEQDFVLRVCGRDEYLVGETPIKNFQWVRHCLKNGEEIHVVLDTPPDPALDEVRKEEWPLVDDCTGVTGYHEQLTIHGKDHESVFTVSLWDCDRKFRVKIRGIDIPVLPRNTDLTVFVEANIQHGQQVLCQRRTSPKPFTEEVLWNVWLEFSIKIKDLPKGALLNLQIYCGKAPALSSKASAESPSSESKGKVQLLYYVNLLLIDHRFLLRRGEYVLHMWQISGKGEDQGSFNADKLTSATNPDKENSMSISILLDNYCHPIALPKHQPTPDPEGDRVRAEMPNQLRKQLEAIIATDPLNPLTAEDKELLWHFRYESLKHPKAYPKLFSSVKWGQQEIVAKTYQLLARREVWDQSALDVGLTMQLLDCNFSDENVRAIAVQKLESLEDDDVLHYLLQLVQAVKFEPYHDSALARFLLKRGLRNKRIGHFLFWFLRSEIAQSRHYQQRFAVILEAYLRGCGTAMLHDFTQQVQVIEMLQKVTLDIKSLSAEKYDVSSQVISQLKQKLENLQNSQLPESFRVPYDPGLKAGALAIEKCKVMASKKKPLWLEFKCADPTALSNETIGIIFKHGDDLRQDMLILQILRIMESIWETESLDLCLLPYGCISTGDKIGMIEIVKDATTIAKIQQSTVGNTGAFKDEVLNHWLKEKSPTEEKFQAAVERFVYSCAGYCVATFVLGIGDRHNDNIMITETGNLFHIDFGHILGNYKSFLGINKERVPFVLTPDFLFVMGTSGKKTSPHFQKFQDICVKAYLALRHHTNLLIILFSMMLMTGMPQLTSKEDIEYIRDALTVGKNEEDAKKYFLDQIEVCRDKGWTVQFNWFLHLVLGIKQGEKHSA
Chain of PI3Kγ (Q8WYR1 whole entry partner, the tested form may be a part, canonical isoform): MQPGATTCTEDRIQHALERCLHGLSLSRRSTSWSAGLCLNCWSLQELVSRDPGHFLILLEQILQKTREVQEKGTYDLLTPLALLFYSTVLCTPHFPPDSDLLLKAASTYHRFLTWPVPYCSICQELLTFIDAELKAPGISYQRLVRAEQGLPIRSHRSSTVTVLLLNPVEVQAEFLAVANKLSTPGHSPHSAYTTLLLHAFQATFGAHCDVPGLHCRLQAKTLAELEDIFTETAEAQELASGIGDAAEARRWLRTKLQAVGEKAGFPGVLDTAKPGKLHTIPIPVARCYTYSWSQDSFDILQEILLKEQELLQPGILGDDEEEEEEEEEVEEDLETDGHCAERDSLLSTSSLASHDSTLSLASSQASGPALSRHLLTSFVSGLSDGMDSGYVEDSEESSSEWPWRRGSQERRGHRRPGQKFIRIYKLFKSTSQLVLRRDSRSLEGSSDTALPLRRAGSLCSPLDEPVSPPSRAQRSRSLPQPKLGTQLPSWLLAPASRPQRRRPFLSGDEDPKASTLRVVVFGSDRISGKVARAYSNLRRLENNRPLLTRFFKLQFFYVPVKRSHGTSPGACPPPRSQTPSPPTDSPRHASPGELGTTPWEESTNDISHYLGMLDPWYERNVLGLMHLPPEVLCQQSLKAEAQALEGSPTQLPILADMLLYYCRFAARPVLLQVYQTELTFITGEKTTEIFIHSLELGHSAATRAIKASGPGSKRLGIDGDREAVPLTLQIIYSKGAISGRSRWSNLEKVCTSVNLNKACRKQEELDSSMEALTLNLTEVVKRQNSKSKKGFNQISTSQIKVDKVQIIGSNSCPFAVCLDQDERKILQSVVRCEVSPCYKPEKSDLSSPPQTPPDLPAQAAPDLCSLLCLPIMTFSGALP
Chain of PI3Kδ (O00329 whole entry): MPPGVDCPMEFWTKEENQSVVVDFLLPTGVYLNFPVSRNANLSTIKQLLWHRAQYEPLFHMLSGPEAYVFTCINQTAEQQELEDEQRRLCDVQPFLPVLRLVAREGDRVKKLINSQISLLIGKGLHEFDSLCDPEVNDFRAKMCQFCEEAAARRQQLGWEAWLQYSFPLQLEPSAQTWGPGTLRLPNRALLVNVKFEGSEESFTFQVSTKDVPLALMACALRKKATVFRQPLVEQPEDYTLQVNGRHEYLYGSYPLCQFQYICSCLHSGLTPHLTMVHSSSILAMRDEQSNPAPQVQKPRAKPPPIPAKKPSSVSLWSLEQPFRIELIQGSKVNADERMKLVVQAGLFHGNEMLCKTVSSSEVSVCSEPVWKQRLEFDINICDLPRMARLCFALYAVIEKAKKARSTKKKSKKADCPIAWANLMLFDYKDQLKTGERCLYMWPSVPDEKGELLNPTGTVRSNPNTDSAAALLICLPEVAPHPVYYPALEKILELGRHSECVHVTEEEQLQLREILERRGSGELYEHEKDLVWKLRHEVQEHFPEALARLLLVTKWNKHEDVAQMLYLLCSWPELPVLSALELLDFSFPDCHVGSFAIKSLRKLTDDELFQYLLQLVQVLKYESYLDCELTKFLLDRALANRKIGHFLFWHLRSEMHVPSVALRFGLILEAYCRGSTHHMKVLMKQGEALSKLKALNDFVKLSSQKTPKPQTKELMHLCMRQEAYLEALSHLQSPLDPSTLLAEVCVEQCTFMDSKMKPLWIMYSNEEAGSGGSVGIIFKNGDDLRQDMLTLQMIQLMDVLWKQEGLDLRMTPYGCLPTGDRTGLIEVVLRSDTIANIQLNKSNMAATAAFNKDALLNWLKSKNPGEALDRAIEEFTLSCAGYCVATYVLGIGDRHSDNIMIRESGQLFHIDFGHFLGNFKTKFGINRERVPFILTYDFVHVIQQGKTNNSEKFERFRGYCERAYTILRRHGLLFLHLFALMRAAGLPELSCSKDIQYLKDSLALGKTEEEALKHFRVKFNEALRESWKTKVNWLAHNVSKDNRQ
Chain of PI3Kδ (P27986 whole entry partner): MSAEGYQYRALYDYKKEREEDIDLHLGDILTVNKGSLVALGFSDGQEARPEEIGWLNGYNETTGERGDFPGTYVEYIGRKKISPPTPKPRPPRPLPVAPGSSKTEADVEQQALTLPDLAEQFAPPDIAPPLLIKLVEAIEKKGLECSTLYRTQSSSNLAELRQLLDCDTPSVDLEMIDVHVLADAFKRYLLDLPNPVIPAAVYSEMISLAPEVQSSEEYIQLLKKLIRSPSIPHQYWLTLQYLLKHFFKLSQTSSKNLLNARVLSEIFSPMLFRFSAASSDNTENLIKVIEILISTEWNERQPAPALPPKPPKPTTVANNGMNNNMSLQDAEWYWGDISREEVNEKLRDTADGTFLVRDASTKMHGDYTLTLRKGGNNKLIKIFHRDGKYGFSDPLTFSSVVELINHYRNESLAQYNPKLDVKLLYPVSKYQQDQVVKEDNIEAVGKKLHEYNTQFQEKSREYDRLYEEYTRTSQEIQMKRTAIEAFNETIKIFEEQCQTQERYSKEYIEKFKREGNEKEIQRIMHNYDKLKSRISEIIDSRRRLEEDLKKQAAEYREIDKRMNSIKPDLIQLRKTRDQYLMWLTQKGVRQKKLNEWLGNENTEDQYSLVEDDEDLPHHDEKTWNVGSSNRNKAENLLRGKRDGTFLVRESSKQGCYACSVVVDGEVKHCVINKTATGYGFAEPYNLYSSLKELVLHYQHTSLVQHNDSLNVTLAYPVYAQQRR
Chain of PI3Kα (P42336 whole entry): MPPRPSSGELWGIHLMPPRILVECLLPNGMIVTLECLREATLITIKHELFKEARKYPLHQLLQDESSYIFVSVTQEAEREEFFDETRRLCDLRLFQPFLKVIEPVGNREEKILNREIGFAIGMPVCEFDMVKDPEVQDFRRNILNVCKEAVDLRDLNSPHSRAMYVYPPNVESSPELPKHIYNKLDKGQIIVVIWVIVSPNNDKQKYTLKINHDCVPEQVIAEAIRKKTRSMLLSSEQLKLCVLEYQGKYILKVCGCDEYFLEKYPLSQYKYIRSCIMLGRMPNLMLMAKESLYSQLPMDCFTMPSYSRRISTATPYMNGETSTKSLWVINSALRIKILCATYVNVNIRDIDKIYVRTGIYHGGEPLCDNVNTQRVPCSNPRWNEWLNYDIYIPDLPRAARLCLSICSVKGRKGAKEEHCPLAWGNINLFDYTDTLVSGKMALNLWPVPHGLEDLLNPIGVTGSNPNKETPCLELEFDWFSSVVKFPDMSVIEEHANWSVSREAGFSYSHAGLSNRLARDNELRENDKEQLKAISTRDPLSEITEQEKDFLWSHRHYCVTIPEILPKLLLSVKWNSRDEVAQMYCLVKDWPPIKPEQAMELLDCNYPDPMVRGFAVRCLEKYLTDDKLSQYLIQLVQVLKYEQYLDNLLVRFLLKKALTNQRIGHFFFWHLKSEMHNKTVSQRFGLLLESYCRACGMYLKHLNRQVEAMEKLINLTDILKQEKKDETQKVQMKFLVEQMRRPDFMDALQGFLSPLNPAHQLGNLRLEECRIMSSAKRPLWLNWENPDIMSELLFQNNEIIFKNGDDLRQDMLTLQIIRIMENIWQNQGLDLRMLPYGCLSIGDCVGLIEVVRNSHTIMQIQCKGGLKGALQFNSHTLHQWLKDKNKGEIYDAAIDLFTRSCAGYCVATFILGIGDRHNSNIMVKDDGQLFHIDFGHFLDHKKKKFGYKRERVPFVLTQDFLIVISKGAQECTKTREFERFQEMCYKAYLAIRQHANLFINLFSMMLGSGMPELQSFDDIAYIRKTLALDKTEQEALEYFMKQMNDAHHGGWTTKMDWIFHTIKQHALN
Chain of PI3Kα (P27986 whole entry partner): as the sequence (P27986 whole entry partner) above

Regarding `C[C@H](Nc1ncnc(N)c1C#Cc1cnccn1)c1nc2ccc(F)cc2c(=O)n1-c1ccccc1` [Compound 91a, (S)-2-(1-((6-amino-5-(pyrazin-2-ylethynyl)pyrimidin-4-yl)amino)ethyl)-6-fluoro-3-phenylquinazolin-4(3H)-one], the IC50 in test [1] (bound given in uM) was more than 1 µM; in test [2], more than 1 µM; in test [3], less than 100 nM.

With `Nc1ncnc(N[C@H](CO)c2nc3cccc(Cl)c3c(=O)n2-c2ccccc2)c1C#Cc1ccc(F)cn1` [139b], the values for the IC50 in test [1] (bound given in uM), in test [2] and in test [3] were more than 1 µM, more than 1 µM and less than 100 nM, respectively.

`C[C@H](Nc1ncnc(N)c1C#Cc1ccc(F)cn1)c1nc2c(Cl)ccc(Cl)c2c(=O)n1-c1ccccc1` [Compound 11a, (S)-2-(1-(6-amino-5-((5-fluoropyridin-2-yl)ethynyl)pyrimidin-4-ylamino)ethyl)-5,8-dichloro-3-phenylquinazolin-4(3H)-one]: the half-inhibitory concentration (IC50) in test [1] (bound given in uM) is more than 1 µM; in test [2], more than 1 µM; in test [3] it was less than 100 nM.

`CCc1ccnc(C#Cc2c(N)ncnc2N[C@@H](C)c2nc3cccc(Cl)c3c(=O)n2-c2ccccc2)c1` [Compound 150a, (S)-2-(1-((6-amino-5-((4-ethylpyridin-2-yl)ethynyl)pyrimidin-4-yl)amino)ethyl)-5-chloro-3-phenylquinazolin-4(3H)-one]: the IC50 was less than 0.1 µM in test [1] (bound given in nM), more than 1 µM in test [2] and less than 100 nM in test [3].

Take `Cc1cccc2nc([C@H](C)Nc3ncnc(N)c3C#Cc3cnccn3)n(-c3cccc(F)c3)c(=O)c12` [Compound 106a, (S)-2-(1-((6-amino-5-(pyrazin-2-ylethynyl)pyrimidin-4-yl)amino)ethyl)-3-(3-fluorophenyl)-5-methylquinazolin-4(3H)-one]: the values for the IC50 in test [1] (bound given in uM), in test [2] and in test [3] were more than 1 µM, more than 1 µM and less than 100 nM, respectively.

With `Cc1ccc(F)c2c(=O)n(-c3ccccc3)c([C@H](C)Nc3ncnc(N)c3C#Cc3ccc(F)cn3)nc12` [Compound 69a, (S)-2-(1-((6-amino-5-((5-fluoropyridin-2-yl)ethynyl)pyrimidin-4-yl)amino)ethyl)-5-fluoro-8-methyl-3-phenylquinazolin-4(3H)-one], the half-maximal inhibitory concentration (IC50) is more than 1 µM in test [1] (bound given in uM), more than 1 µM in test [2] and less than 100 nM in test [3].

On to `Cc1ccc(F)c2nc([C@H](C)Nc3ncnc(N)c3C#Cc3cnccn3)n(-c3cccc(C#N)c3)c(=O)c12` [Compound 73a, (S)-3-(2-(1-((6-amino-5-(pyrazin-2-ylethynyl)pyrimidin-4-yl)amino)ethyl)-8-fluoro-5-methyl-4-oxoquinazolin-3(4H)-yl)benzonitrile], for which the results for the IC50 in test [1] (bound given in uM), in test [2] and in test [3] were more than 1 µM, more than 1 µM and less than 100 nM, respectively.

With `C[C@H](Nc1ncnc(N)c1C#Cc1cccc(CO)c1)c1nc2cccc(Cl)c2c(=O)n1-c1ccccc1` [Compound 162a, (S)-2-(1-((6-amino-5-((3-(hydroxymethyl)phenyl)ethynyl)pyrimidin-4-yl)amino)ethyl)-5-chloro-3-phenylquinazolin-4(3H)-one], the IC50 in test [1] (bound given in uM) is more than 1 µM; in test [2] it was more than 1 µM; in test [3] it was less than 100 nM.

Turning to `Cc1cccc2nc([C@H](C)Nc3ncnc(N)c3C#Cc3cnccn3)n(-c3cccnc3)c(=O)c12` [Compound 119a, (S)-2-(1-((6-amino-5-(pyrazin-2-ylethynyl)pyrimidin-4-yl)amino)ethyl)-5-methyl-3-(pyridin-3-yl)quinazolin-4(3H)-one], the values for the half-maximal inhibitory concentration (IC50) in test [1] (bound given in uM), in test [2] and in test [3] were more than 1 µM, more than 1 µM and less than 100 nM, respectively.

Consider `C[C@H](Nc1ncnc(N)c1C#Cc1ccc(F)cn1)c1nc2cccc(Cl)c2c(=O)n1N1CCOCC1` [Compound 121a, (S)-2-(1-((6-amino-5-((5-fluoropyridin-2-yl)ethynyl)pyrimidin-4-yl)amino)ethyl)-5-chloro-3-morpholinoquinazolin-4(3H)-one], for which the IC50 in test [1] (bound given in uM) was more than 1 µM; in test [2], more than 1 µM; in test [3], less than 100 nM.
